Changes are numbered by the printed parent chain. Like-named read-outs stand apart in the source and are kept apart here. Where no end group is shown, it is not given here.
Assays:
[1] = target: T1, ATAD2Bshort bromodomain (lacks residues 988–992, VDIEE) (Homo sapiens, UniProt Q9ULI0, DEL988-992); test: ITC binding to the ATAD2Bshort splice variant bromodomain; conditions: ITC at 5 °C, 20 mM NaH2PO4 pH 7.0, 150 mM NaCl; no binding in duplicate
T1 sequence (Q9ULI0 953-1080 isoform Q9ULI0-2): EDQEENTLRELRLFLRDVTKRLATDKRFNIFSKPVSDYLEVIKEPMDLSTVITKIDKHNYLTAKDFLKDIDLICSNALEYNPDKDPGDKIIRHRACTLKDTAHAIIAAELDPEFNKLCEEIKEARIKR

[2] = target: ATAD2 bromodomain; conditions: cited from earlier work
[3] = target: T2, ATAD2B bromodomain Y1037A (Homo sapiens, UniProt Q9ULI0, Y1037A); test: ITC binding to the ATAD2B bromodomain mutant Y1037A; conditions: ITC at 5 °C, 20 mM NaH2PO4 pH 7.0, 150 mM NaCl; no binding in duplicate
T2 sequence (Q9ULI0 953-1085 Y1037A): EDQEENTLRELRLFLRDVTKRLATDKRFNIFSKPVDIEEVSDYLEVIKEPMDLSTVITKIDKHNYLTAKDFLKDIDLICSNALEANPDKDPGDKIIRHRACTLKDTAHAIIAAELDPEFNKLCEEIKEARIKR

[4] = target: T3, ATAD2B bromodomain Y995A (Homo sapiens, UniProt Q9ULI0, Y995A); test: ITC binding to the ATAD2B bromodomain mutant Y995A; conditions: ITC at 5 °C, 20 mM NaH2PO4 pH 7.0, 150 mM NaCl; no binding in duplicate
T3 sequence (Q9ULI0 953-1085 Y995A): T2 sequence (Q9ULI0 953-1085 Y1037A) with Y43A, A85Y

[5] = target: T4, ATAD2B bromodomain (Homo sapiens, UniProt Q9ULI0); test: ITC binding to the wild-type ATAD2B bromodomain
T4 sequence (Q9ULI0 953-1085): T2 sequence (Q9ULI0 953-1085 Y1037A) with A85Y

[6] = tested on: ATAD2 bromodomain; conditions: time-resolved fluorescence energy transfer; cited from earlier work

Dissociation constant, ATAD2Bshort bromodomain [1] | Dissociation constant, Y1037A ATAD2B bromodomain [3] | Dissociation constant, Y995A ATAD2B bromodomain [4] | Molecule | also measured
no binding | no binding | no binding | GKGGKGLGKGGAKRHRK [H4 unmodified (res 4–17)] | –
– | – | – | H4K5acK8acK12acK16ac (1–25): tetra-acetylated histone H4 residues 1–25 peptide of the cited TR-FRET assay | recognition by the ATAD2 bromodomain in TR-FRET [6]: recognizes
– | – | – | H4K5acK12ac (1–25): diacetylated histone H4 residues 1–25 peptide of the cited TR-FRET assay | recognition by the ATAD2 bromodomain in TR-FRET [6]: recognizes
– | – | – | LGK(Ac)GGAK(Ac)RHRK-NH2 [H4K12acK16ac (res 10–20)] | Kd [5]: 214 ± 7 µM
– | – | – | RKSTGG(Kac)APRKQ [H3K14ac (res 8–19)] | ATAD2 reported KDs ([2]; result is for the H3K14ac res 1–21 peptide): no binding (res 1–21)[14]
no binding | no binding | no binding | SGRGK(Ac)GGK(Ac)GL-NH2 [H4K5acK8ac (res 1–10)] | –
no binding | no binding | no binding | SGRGK(Ac)GGKGL-NH2 [H4K5ac (res 1–10)] | Kd ([2]; read-out: ATAD2 reported KDs, value is for the H4K5ac res 1–20 peptide): 22 µM
no binding | no binding | no binding | SGRGK(Ac)QGGKARA-NH2 [H2AK5ac (res 1–12)] | –
– | – | – | SGRGKGGK(Ac)GL-NH2 [H4K8ac (res 1–10)] | ATAD2 reported KDs (no KD available, interaction only) ([2]; qualitative): NA, interaction shown[16]

Molecule | Dissociation constant, ATAD2Bshort bromodomain [1] | Dissociation constant, Y1037A ATAD2B bromodomain [3] | Dissociation constant, Y995A ATAD2B bromodomain [4] | also measured
8-(((3R,4R)-3-((1,1-dioxidotetrahydro-2H-thiopyran-4-yl)-methoxy)-piperidin-4-yl)amino)-3-methyl-5-(5-methylpyridin-3-yl)-1,7-naphthyridin-2(1H)-one [compound 38, reference compound] | no binding | – | – | Kd ([2]; read-out: ATAD2 reported KDs (binding affinity)): 0.09 µM
CC(=O)NCCCC[C@H](NC(=O)CNC(=O)[C@H](CC(C)C)NC(=O)CNC(=O)[C@H](CCCCN)NC(=O)CNC(=O)CNC(=O)[C@H](CCCCN)NC(=O)CN)C(=O)NCC(=O)NCC(=O)N[C@@H](C)C(=O)N[C@@H](CCCCN)C(=O)N[C@@H](CCCNC(=N)N)C(N)=O [H4K12ac (res 4–17)] | no binding | no binding | no binding | Kd ([2]; read-out: ATAD2 reported KDs, value is for the H4K12ac res 1–25 peptide): 2.5 µM; Kd [5]: 50.5 ± 5.8 µM

Reference: paper PMC7884259 (Journal of medicinal chemistry, 2020)
